Measured values as given in PubChem BioAssay (NCI).
Several values for one entry are separate records, joined by “and”; a condition that tells them apart may be missing. Equal entries are not always repeated.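 Briefly, cells in 96-well plates were exposed to five compound concentrations for 48 h, and endpoints were estimated by linear interpolation. GI50 marks 50% less growth. TGI marks complete inhibition of growth.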

How the values were obtained:
Assay in all cases: NCI anticancer screen, dose series, 48 h
[1] = system: COLO 205 colon
[2] = system: EKVX NSCLC
[3] = system: HCT-15 colon
[4] = system: IGROV1 ovarian
[5] = system: LOX IMVI melanoma
[6] = system: OVCAR-8 ovarian
[7] = system: SK-MEL-2 melanoma
[8] = system: SK-OV-3 ovarian
[9] = system: SNB-75 CNS
[10] = system: U251 CNS

## NS(=O)(=O)c1ccc(N2N=C3c4ccccc4CC3C2c2ccc(Cl)cc2)cc1 (configuration not stated)
[1]
  GI50: 4.99 µM
  TGI: > 100 µM
[2]
  GI50: 14.1 µM
  TGI: 58.9 µM
[3]
  GI50: 18.2 µM
  TGI: 38.3 µM
[4]
  GI50: 3.48 µM
  TGI: 19.6 µM
[5]
  GI50: 18 µM
  TGI: 36.5 µM
[6]
  GI50: 11.8 µM
  TGI: 33.4 µM
[7]
  GI50: 8.23 µM
  TGI: 28.4 µM
[8]
  GI50: 12.4 µM
  TGI: 49.4 µM
[9]
  GI50: 2.97 µM
  TGI: 7.94 µM
[10]
  GI50: 20.2 µM
  TGI: 42.5 µM

## C=C1C(=O)O[C@H]2[C@H]1CC/C(COC(=O)NCc1c[nH]c3ccc(Cl)cc13)=C\CC[C@@]1(C)O[C@@H]21
[1]
  GI50: 1.19 µM
  TGI: 2.69 µM
[2]
  GI50: 1.58 µM
  TGI: 3 µM
[3]
  GI50: 0.615 µM
  TGI: 1.95 µM
[4]
  GI50: 1.41 µM
  TGI: 2.94 µM
[5]
  GI50: 0.633 µM
  TGI: 2.03 µM
[6]
  GI50: 1.38 µM
  TGI: 3.36 µM
[7]
  GI50: 1.42 µM
  TGI: 2.87 µM
[8]
  GI50: 5.75 µM
  TGI: 18.9 µM
[9]
  GI50: 1.29 µM
  TGI: 2.57 µM
[10]
  GI50: 1.66 µM
  TGI: 3.08 µM

## N#Cc1ccnc(N2C(=O)CC[C@H]2C(=O)N(c2cncc(F)c2)[C@H](C(=O)NC2CC(F)(F)C2)c2ccccc2Cl)c1
[1]
  GI50: > 100 µM
  TGI: > 100 µM
[2]
  GI50: 99.2 µM
  TGI: > 100 µM
[3]
  GI50: 88.6 µM
  TGI: > 100 µM
[4]
  GI50: 44.5 µM
  TGI: > 100 µM
[5]
  GI50: 52.6 µM
  TGI: > 100 µM
[6]
  GI50: > 100 µM
  TGI: > 100 µM
[7]
  GI50: > 100 µM
  TGI: > 100 µM
[8]
  GI50: > 100 µM
  TGI: > 100 µM
[9]
  GI50: 16.7 µM
  TGI: > 100 µM
[10]
  GI50: > 100 µM
  TGI: > 100 µM

## Cc1ccccc1CN1CC=c2ccccc2=N1
[1]
  TGI: > 100 µM
[2]
  TGI: > 100 µM
[3]
  TGI: > 100 µM
[4]
  TGI: > 100 µM
[5]
  TGI: > 100 µM
[6]
  TGI: > 100 µM
[7]
  TGI: > 100 µM
[8]
  TGI: > 100 µM
[9]
  TGI: > 100 µM
[10]
  TGI: > 100 µM

## COc1cc(/C=C2\COc3ccc(O)c(O)c3C2=O)cc(OC)c1
[1]
  GI50: 1.75 µM
  TGI: 5.68 µM
[2]
  GI50: 2.12 µM
  TGI: 5.53 µM
[3]
  GI50: 0.483 µM
  TGI: 10.8 µM
[4]
  GI50: 1.36 µM
  TGI: 5.22 µM
[5]
  GI50: 1.28 µM
  TGI: 2.67 µM
[6]
  GI50: 0.944 µM
  TGI: 18.3 µM
[7]
  GI50: 1.93 µM
  TGI: 5.23 µM
[8]
  GI50: 4.57 µM
  TGI: 17.3 µM
[9]
  GI50: 2.42 µM
  TGI: 10.9 µM
[10]
  GI50: 0.861 µM
  TGI: 4.09 µM

## CCC(C)C(NC(=O)C1CCCN1C(=O)C(NC(=O)C(C)N)C(C)C)C(N)=O (configuration not stated)
[1]
  GI50: > 100 µM
  TGI: > 100 µM
[2]
  GI50: 77.2 µM
  TGI: > 100 µM
[3]
  GI50: > 100 µM
  TGI: > 100 µM
[4]
  GI50: > 100 µM
  TGI: > 100 µM
[5]
  GI50: > 100 µM
  TGI: > 100 µM
[6]
  GI50: > 100 µM
  TGI: > 100 µM
[7]
  GI50: > 100 µM
  TGI: > 100 µM
[8]
  GI50: > 100 µM
  TGI: > 100 µM
[9]
  GI50: > 100 µM
  TGI: > 100 µM
[10]
  GI50: > 100 µM
  TGI: > 100 µM

## CO[C@@H]1[C@H](OC(=O)NC(=O)CCl)CC[C@]2(CO2)[C@H]1[C@@]1(C)O[C@@H]1CC=C(C)C
[1]
  GI50: 9.44 µM and 2.54 µM
  TGI: 31.5 µM and 35.7 µM
[2]
  GI50: 22.4 µM
  TGI: 35.8 µM and 52.4 µM
[3]
  GI50: 5.15 µM
  TGI: 56.1 µM and 35.7 µM
[4]
  TGI: 33 µM and 43.4 µM
[5]
  GI50: 2.76 µM
  TGI: 25.2 µM and 34.6 µM
[6]
  TGI: 79.9 µM
[7]
  GI50: 23 µM
  TGI: 35.5 µM and 68.6 µM
[8]
  GI50: 2.52 µM and 20.8 µM
  TGI: 39.5 µM and 59.2 µM
[9]
  TGI: 24.7 µM and 200 µM
[10]
  GI50: 4.98 µM and 0.575 µM
  TGI: 20.8 µM and 13.3 µM

## Cc1ccc(S(=O)(=O)N2CCc3ccc(O)c4c3C2Cc2cc(Cl)ccc2-4)cc1 (configuration not stated)
[1]
  GI50: 8.12 µM
  TGI: 26.2 µM
[2]
  GI50: 2.52 µM
  TGI: 28.8 µM
[3]
  GI50: 1.35 µM
  TGI: 6.97 µM
[4]
  GI50: 1.35 µM
  TGI: 5.86 µM
[5]
  GI50: 1.84 µM
  TGI: 6.02 µM
[6]
  GI50: 1.21 µM
  TGI: 5.83 µM
[7]
  GI50: 1.1 µM
  TGI: 3.41 µM
[8]
  GI50: 1.11 µM
  TGI: 3.75 µM
[9]
  GI50: 0.639 µM
  TGI: 2.42 µM
[10]
  GI50: 0.972 µM
  TGI: 3.77 µM

## O=C1C(=O)C(Br)(Br)C(Br)=C1Br
[1]
  TGI: 32.9 µM
[2]
  TGI: 54.8 µM
[3]
  TGI: 41.9 µM
[4]
  TGI: > 100 µM
[5]
  TGI: 31.9 µM
[6]
  TGI: 36.6 µM
[7]
  TGI: 33.7 µM
[8]
  TGI: > 100 µM
[9]
  TGI: 27.7 µM
[10]
  TGI: 79.8 µM

## COc1ccc(-c2ccc(C3CC(c4ccc(Cl)cc4)=NN3)o2)c([N+](=O)[O-])c1 (configuration not stated)
[1]
  GI50: > 100 µM
  TGI: > 100 µM
[2]
  GI50: > 100 µM
  TGI: > 100 µM
[3]
  GI50: > 100 µM
  TGI: > 100 µM
[4]
  GI50: > 100 µM
  TGI: > 100 µM
[5]
  GI50: > 100 µM
  TGI: > 100 µM
[6]
  GI50: > 100 µM
  TGI: > 100 µM
[7]
  GI50: > 100 µM
  TGI: > 100 µM
[8]
  GI50: > 100 µM
  TGI: > 100 µM
[9]
  GI50: > 100 µM
  TGI: > 100 µM
[10]
  GI50: > 100 µM
  TGI: > 100 µM
